Experimental data as given in patent US11807644B2 (PMV Pharmaceuticals, Inc., priority 2020, dated 2023).

What follows are compounds tested against T1, recombinant His-tag Y220C p53 DBD protein (Homo sapiens, UniProt P04637, Y220C) (assay: In vitro DNA binding activity assay (TR-FRET): binding of His-tag Y220C p53 DBD to biotin-labeled consensus DNA). Conditions: SC150 = concentration to increase DNA binding by […], His-tag Y220C p53 DBD, biotin-labeled consensus DNA.
T1 construct: recombinant His-tag Y220C p53 DBD protein (amino acids #˜94-312)
Assay type: biochemical

Compound	Y220C SC150 (μM)
CN1CC[C@@H](Nc2cccc3c2cc(-c2noc(CNC(=O)c4ccncc4)n2)n3CC(F)(F)F)[C@@H](F)C1 [Compound 200B, N-{[3-(4-{[(3S,4R)-3-fluoro-1-methylpiperidin-4-yl]amino}-1-(2,2,2-trifluoroethyl)-1H-indol-2-yl)-1,2,4-oxadiazol-5-yl]methyl}pyridine-4-carboxamide]	* (* = 0 μM ≤ SC150 < 0.1 μM)
CN1CC[C@@H](Nc2cccc3c2cc(-c2noc(CNC(=O)c4ccccn4)n2)n3CC(F)(F)F)[C@@H](F)C1 [Compound 201B, N-{[3-(4-{[(3S,4R)-3-fluoro-1-methylpiperidin-4-yl]amino}-1-(2,2,2-trifluoroethyl)-1H-indol-2-yl)-1,2,4-oxadiazol-5-yl]methyl}pyridine-2-carboxamide]	* (* = 0 μM ≤ SC150 < 0.1 μM)
CN1CC[C@@H](Nc2cccc3c2cc(-c2noc(CNC(=O)c4cccnc4)n2)n3CC(F)(F)F)[C@@H](F)C1 [Compound 202B, N-{[3-(4-{[(3S,4R)-3-fluoro-1-methylpiperidin-4-yl]amino}-1-(2,2,2-trifluoroethyl)-1H-indol-2-yl)-1,2,4-oxadiazol-5-yl]methyl}pyridine-3-carboxamide]	* (* = 0 μM ≤ SC150 < 0.1 μM)
F[C@H]1CNCC[C@H]1Nc1cccc2c1cc(-c1noc(CNc3cn[nH]c3)n1)n2CC(F)(F)F [Compound 203B, N-[(3S,4R)-3-fluoropiperidin-4-yl]-2-(5-{[(1H-pyrazol-4-yl)amino]methyl}-1,2,4-oxadiazol-3-yl)-1-(2,2,2-trifluoroethyl)-1H-indol-4-amine]	* (* = 0 μM ≤ SC150 < 0.1 μM)
CN1CC[C@@H](Nc2cccc3c2cc(-c2noc(CNC(=O)c4ccn(CCF)c4)n2)n3CC(F)(F)F)[C@@H](F)C1 [Compound 205B, N-{[3-(4-{[(3S,4R)-3-fluoro-1-methylpiperidin-4-yl]amino}-1-(2,2,2-trifluoroethyl)-1H-indol-2-yl)-1,2,4-oxadiazol-5-yl]methyl}-1-(2-fluoroethyl)-1H-pyrrole-3-carboxamide]	* (* = 0 μM ≤ SC150 < 0.1 μM)
CN1CC[C@@H](Nc2cccc3c2cc(-c2noc(CNC(=O)[C@H]4C[C@H]4c4ccccc4)n2)n3CC(F)(F)F)[C@@H](F)C1 [Compound 206B, (1S,2R)-N-{[3-(4-{[(3S,4R)-3-fluoro-1-methylpiperidin-4-yl]amino}-1-(2,2,2-trifluoroethyl)-1H-indol-2-yl)-1,2,4-oxadiazol-5-yl]methyl}-2-phenylcyclopropane-1-carboxamide]	* (* = 0 μM ≤ SC150 < 0.1 μM)
CN1CC[C@@H](Nc2cccc3c2cc(-c2noc(CNC(=O)[C@@H]4C[C@@H]4c4ccccc4)n2)n3CC(F)(F)F)[C@@H](F)C1 [Compound 207B, (1R,2S)-N-{[3-(4-{[(3S,4R)-3-fluoro-1-methylpiperidin-4-yl]amino}-1-(2,2,2-trifluoroethyl)-1H-indol-2-yl)-1,2,4-oxadiazol-5-yl]methyl}-2-phenylcyclopropane-1-carboxamide]	** (** = 0.1 μM ≤ SC150 < 0.5 μM)
Cc1cc(C(=O)NCc2nc(-c3cc4c(N[C@@H]5CCN(C)C[C@@H]5F)cccc4n3CC(F)(F)F)no2)cs1 [Compound 208B, N-{[3-(4-{[(3S,4R)-3-fluoro-1-methylpiperidin-4-yl]amino}-1-(2,2,2-trifluoroethyl)-1H-indol-2-yl)-1,2,4-oxadiazol-5-yl]methyl}-5-methylthiophene-3-carboxamide]	* (* = 0 μM ≤ SC150 < 0.1 μM)
Cc1cscc1C(=O)NCc1nc(-c2cc3c(N[C@@H]4CCN(C)C[C@@H]4F)cccc3n2CC(F)(F)F)no1 [Compound 209B, N-{[3-(4-{[(3S,4R)-3-fluoro-1-methylpiperidin-4-yl]amino}-1-(2,2,2-trifluoroethyl)-1H-indol-2-yl)-1,2,4-oxadiazol-5-yl]methyl}-4-methylthiophene-3-carboxamide]	* (* = 0 μM ≤ SC150 < 0.1 μM)
CN1CC[C@@H](Nc2cccc3c2cc(-c2noc(CNC(=O)[C@@H]4C[C@H]4c4ccc(F)cc4)n2)n3CC(F)(F)F)[C@@H](F)C1 [Compound 210B, (1R,2R)-N-{[3-(4-{[(3S,4R)-3-fluoro-1-methylpiperidin-4-yl]amino}-1-(2,2,2-trifluoroethyl)-1H-indol-2-yl)-1,2,4-oxadiazol-5-yl]methyl}-2-(4-fluorophenyl)cyclopropane-1-carboxamide]	* (* = 0 μM ≤ SC150 < 0.1 μM)
Cc1sccc1C(=O)NCc1nc(-c2cc3c(N[C@@H]4CCN(C)C[C@@H]4F)cccc3n2CC(F)(F)F)no1 [Compound 211B, N-{[3-(4-{[(3S,4R)-3-fluoro-1-methylpiperidin-4-yl]amino}-1-(2,2,2-trifluoroethyl)-1H-indol-2-yl)-1,2,4-oxadiazol-5-yl]methyl}-2-methylthiophene-3-carboxamide]	* (* = 0 μM ≤ SC150 < 0.1 μM)
CN1CC[C@@H](Nc2cccc3c2cc(-c2noc(CNC(=O)[C@H]4C[C@H](C)C4)n2)n3CC(F)(F)F)[C@@H](F)C1 [Compound 212B, (1s,3r)-N-{[3-(4-{[(3S,4R)-3-fluoro-1-methylpiperidin-4-yl]amino}-1-(2,2,2-trifluoroethyl)-1H-indol-2-yl)-1,2,4-oxadiazol-5-yl]methyl}-3-methylcyclobutane-1-carboxamide]	* (* = 0 μM ≤ SC150 < 0.1 μM)

Next, values leading:

Y220C SC150 (μM)	Compound
* (* = 0 μM ≤ SC150 < 0.1 μM)	CN1CC[C@@H](Nc2cccc3c2cc(-c2noc(CNC(=O)c4csc(Cl)c4)n2)n3CC(F)(F)F)[C@@H](F)C1 [Compound 213B, 5-chloro-N-{[3-(4-{[(3S,4R)-3-fluoro-1-methylpiperidin-4-yl]amino}-1-(2,2,2-trifluoroethyl)-1H-indol-2-yl)-1,2,4-oxadiazol-5-yl]methyl}thiophene-3-carboxamide]
* (* = 0 μM ≤ SC150 < 0.1 μM)	F[C@H]1CNCC[C@H]1Nc1cccc2c1cc(-c1noc(CNc3ccn[nH]3)n1)n2CC(F)(F)F [Compound 214B, N-[(3S,4R)-3-fluoropiperidin-4-yl]-2-(5-{[(1H-pyrazol-5-yl)amino]methyl}-1,2,4-oxadiazol-3-yl)-1-(2,2,2-trifluoroethyl)-1H-indol-4-amine]
* (* = 0 μM ≤ SC150 < 0.1 μM)	CN1CC[C@@H](Nc2cccc3c2cc(-c2noc(CNC(=O)c4ccsc4Cl)n2)n3CC(F)(F)F)[C@@H](F)C1 [Compound 215B, 2-chloro-N-{[3-(4-{[(3S,4R)-3-fluoro-1-methylpiperidin-4-yl]amino}-1-(2,2,2-trifluoroethyl)-1H-indol-2-yl)-1,2,4-oxadiazol-5-yl]methyl}thiophene-3-carboxamide]
* (* = 0 μM ≤ SC150 < 0.1 μM)	CN1CC[C@@H](Nc2cccc3c2cc(-c2noc(CNC(=O)c4cc5ccccn5n4)n2)n3CC(F)(F)F)[C@@H](F)C1 [Compound 216B, N-{[3-(4-{[(3S,4R)-3-fluoro-1-methylpiperidin-4-yl]amino}-1-(2,2,2-trifluoroethyl)-1H-indol-2-yl)-1,2,4-oxadiazol-5-yl]methyl}pyrazolo[1,5-a]pyridine-2-carboxamide]
* (* = 0 μM ≤ SC150 < 0.1 μM)	CN1CC[C@@H](Nc2cccc3c2cc(-c2noc(CNC(=O)c4cn5ccccc5n4)n2)n3CC(F)(F)F)[C@@H](F)C1 [Compound 217B, N-{[3-(4-{[(3S,4R)-3-fluoro-1-methylpiperidin-4-yl]amino}-1-(2,2,2-trifluoroethyl)-1H-indol-2-yl)-1,2,4-oxadiazol-5-yl]methyl}imidazo[1,2-a]pyridine-2-carboxamide]
* (* = 0 μM ≤ SC150 < 0.1 μM)	CN1CC[C@@H](Nc2cccc3c2cc(-c2noc(CNC(=O)c4ccn(C5CC5)c4)n2)n3CC(F)(F)F)[C@@H](F)C1 [Compound 218B, 1-cyclopropyl-N-{[3-(4-{[(3S,4R)-3-fluoro-1-methylpiperidin-4-yl]amino}-1-(2,2,2-trifluoroethyl)-1H-indol-2-yl)-1,2,4-oxadiazol-5-yl]methyl}-1H-pyrrole-3-carboxamide]
* (* = 0 μM ≤ SC150 < 0.1 μM)	Cc1cc(C(=O)NCc2nc(-c3cc4c(N[C@@H]5CCN(C)C[C@@H]5F)cccc4n3CC(F)(F)F)no2)cn1C [Compound 219B, N-{[3-(4-{[(3S,4R)-3-fluoro-1-methylpiperidin-4-yl]amino}-1-(2,2,2-trifluoroethyl)-1H-indol-2-yl)-1,2,4-oxadiazol-5-yl]methyl}-1,5-dimethyl-1H-pyrrole-3-carboxamide]
* (* = 0 μM ≤ SC150 < 0.1 μM)	CN1CC[C@@H](Nc2cccc3c2cc(-c2noc(CNC(=O)c4ccc(N(C)C)cc4)n2)n3CC(F)(F)F)[C@@H](F)C1 [Compound 220B, 4-(dimethylamino)-N-{[3-(4-{[(3S,4R)-3-fluoro-1-methylpiperidin-4-yl]amino}-1-(2,2,2-trifluoroethyl)-1H-indol-2-yl)-1,2,4-oxadiazol-5-yl]methyl}benzamide]
** (** = 0.1 μM ≤ SC150 < 0.5 μM)	CN1CC[C@@H](Nc2cccc3c2cc(-c2noc(CNS(=O)(=O)c4ccccc4)n2)n3CC(F)(F)F)[C@@H](F)C1 [Compound 221B, N-{[3-(4-{[(3S,4R)-3-fluoro-1-methylpiperidin-4-yl]amino}-1-(2,2,2-trifluoroethyl)-1H-indol-2-yl)-1,2,4-oxadiazol-5-yl]methyl}benzenesulfonamide]
* (* = 0 μM ≤ SC150 < 0.1 μM)	CN1CC[C@@H](Nc2cccc3c2cc(-c2noc(CNC(=O)C4CCC4)n2)n3CC(F)(F)F)[C@@H](F)C1 [Compound 222B, N-{[3-(4-{[(3S,4R)-3-fluoro-1-methylpiperidin-4-yl]amino}-1-(2,2,2-trifluoroethyl)-1H-indol-2-yl)-1,2,4-oxadiazol-5-yl]methyl}cyclobutanecarboxamide]
* (* = 0 μM ≤ SC150 < 0.1 μM)	CN1CC[C@@H](Nc2cccc3c2cc(-c2noc(CNC(=O)[C@H]4C[C@@H](C)C4)n2)n3CC(F)(F)F)[C@@H](F)C1 [Compound 223B, (1r,3s)-N-{[3-(4-{[(3S,4R)-3-fluoro-1-methylpiperidin-4-yl]amino}-1-(2,2,2-trifluoroethyl)-1H-indol-2-yl)-1,2,4-oxadiazol-5-yl]methyl}-3-methylcyclobutane-1-carboxamide]
